From patent US20090087376A1, “Heterocyclic Dye Compounds For In Vivo Imaging And Diagnosis Of Alzheimer's Disease” (The General Hospital Corporation, priority 2004, published 2009) come the findings set out here.

Data set [1] concerns β-amyloid plaques. Briefly: Plaque specificity of dye compounds. Format: binding.
Data set [2] can be described thus: Enter CNS (BBB). The settings on record: in vivo.
The nature of data set [3]: Near-IR spectra of dye compounds. Format: physicochemical.

`CN(C)c1ccc(-c2ccc(-c3ccc(C=C4C(=C(C#N)C#N)c5ccccc5C4=C(C#N)C#N)s3)s2)cc1` [NIAD7]: in data set [1], the Plaque specificity entry is listed as “Yes”. For the same molecule, the “Enter CNS (BBB)” value in data set [2] is listed as “Yes”. Besides, in data set [3], the Near-IR spectra result is “No”.
Regarding `CN(C)c1ccc(-c2sc(-c3ccc(C=C(C#N)C#N)s3)c3ccccc23)cc1` [NIAD6], the Plaque specificity result in data set [1] is reported as “Yes”. In data set [2], the “Enter CNS (BBB)” value is given as “No”. Moreover, the Near-IR spectra result in data set [3] was “Yes”.
As for `CC1(C)C(/C=C/c2ccc(-c3ccc(-c4ccc(O)cc4)s3)s2)=[N+](CCCS(=O)(=O)[O-])c2ccccc21` [NIAD1], the Plaque specificity entry in data set [1] is listed as “Yes”. Also, the “Enter CNS (BBB)” value in data set [2] is recorded as “Yes/No”. The Near-IR spectra result in data set [3] is “Yes”.
Consider `C[N+]1=C(/C=C/c2ccc(-c3ccc(-c4ccc(O)cc4)s3)s2)C(C)(C)c2ccccc21.[Cl-]` [NIAD3], for which, in data set [1], the Plaque specificity entry is on record as “Yes”. Further, the “Enter CNS (BBB)” value in data set [2] is “No”. In addition, the Near-IR spectra entry in data set [3] is “Yes”.
